What all share (assay type): biochemical
Test [1] concerns the target T1, Factor XIa (Homo sapiens, UniProt P03951). Put plainly: Factor XIa inhibition FLINT assay with fluorophore-quencher peptide substrate 5Fam-[…]-K5Tamra (end point EP or kinetic KIN reads). As to conditions: end point read at 30 min; read-out: FXIa (EP) IC50. The source says: Factor XIa inhibition assay utilizing a fluorophore-quencher pair peptide substrate A fluorescence intensity (FLINT) based assay was used to monitor inhibition of Factor XIa. The peptide substrate, 5Fam-[…]-K5Tamra (purchased from New England Peptide) was chosen based on the FXI sequence. Conversion of zymogen FXI to its activated form, FXIa, occurs by proteolytic cleavage by […] at two sites, Arg146 and Arg180. The custom peptide used in this assay was based on the Arg146 cleavage site of FXI. The peptide substrate was designed with a fluorophore-quencher pair, where the fluorescence is quenched until FXIa cleaves the 8-mer peptide after the Arg residue.
Test compound(s) were run in an 11-point, 3-fold serial dilution with a final top compound concentration of 100 nM. Final DMSO in assay was 2%. FXIa was preincubated with compound for 30-minutes and then substrate was added to initiate the reaction. The assay was run with either end point (EP) reads at 30 min or kinetic (KIN) reads at 5 min intervals over 30 minutes. […] More specifically, the assay was run as follows: • 100 nL of 0.01 mM test compound was dispensed into black 384-well non-binding Greiner BioOne 784900 plate for 0.1 μM final concentration; • 5 μL of 1× assay buffer was dispensed to column 24 (low control) and 5 μL 2× Factor XIa solution was dispensed to columns 1-23 (column 23 high control); • the plate was centrifuged with a “cover” plate at 500 rpm for 1 min • the plate was pre-incubated for 30 minutes at room temperature with plate covered; • 5 μL of 2×5Fam-[…]-K5Tamra peptide substrate was dispensed into the entire plate, columns 1-24; • the plate was centrifuged with a “cover” plate at 500 rpm for 1 min; • the plate was read monitoring fluorescence intensity on the BMG PHERAStar at room temperature, using fluorescence module 485 nm/520 nm.
Percent inhibition (IC50) curves were generated per compound tested, and data was analyzed using a 4-parameter logistic fit using GeneData Screener. The relative fluorescence unit (RFU) values were normalized to percent inhibition using the following equation: % inhibition=((HC−LC)−(compound−LC)/(HC−LC))*100
An 11-point dose response curve for the test compound(s) was generated using GENDATA to determine IC50 value based on the following equation: Y=Bottom+(Top−Bottom)/(1+10^((log IC50−X)*HillSlope))
Results listed in columns with […] designation were measured using endpoint reads where a single fluorescence reading was measured for each well at a 30 min timepoint.

Another test has as its target human plasma kallikrein (Homo sapiens, UniProt P03952). Put plainly: Kallikrein inhibition FLINT assay with quenched AMC peptide substrate Z-Gly-Pro-Arg-AMC (end point EP or kinetic KIN reads). The method in brief: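 Enzyme and compound were preincubated 30 min before adding 50 μM AMC substrate in pH 7.5 Tris/NaCl/CaCl2/BSA/CHAPS buffer. AMC release was read at 30 min endpoint or every 5 min.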

In test [2] the target is T1, Factor XIa. The test can be described thus: Factor XIa inhibition FLINT assay with fluorophore-quencher peptide substrate 5Fam-[…]-K5Tamra (end point EP or kinetic KIN reads). As to conditions: fit to a substrate inhibition model.
Where [3] appears, read: end point read at 30 min, read-out: Kallikrein (EP) IC50.
[4] abbreviates: kinetic reads at 5 min intervals over 30 min, read-out: Kallikrein (KIN) IC50.

Where two headings read alike, the source gives them in different places. *1 amine or outer side, *2 acyl side, *3 side chain or, on linkers, in order; H or OH if unused. The star is where a group is joined. Lys(5-TAMRA) = CN(C)c1ccc2c(-c3ccc(C(=O)NCCCC[C@H](N[*:1])C(=O)[*:2])cc3C(=O)[O-])c3ccc(N(C)C)cc3[o+]c2c1; 5FAM = O=C1OC2(c3ccc(O)cc3Oc3cc(O)ccc32)c2ccc(C(=O)*)cc21

T1 sequence (P03951 388-625 limits assumed): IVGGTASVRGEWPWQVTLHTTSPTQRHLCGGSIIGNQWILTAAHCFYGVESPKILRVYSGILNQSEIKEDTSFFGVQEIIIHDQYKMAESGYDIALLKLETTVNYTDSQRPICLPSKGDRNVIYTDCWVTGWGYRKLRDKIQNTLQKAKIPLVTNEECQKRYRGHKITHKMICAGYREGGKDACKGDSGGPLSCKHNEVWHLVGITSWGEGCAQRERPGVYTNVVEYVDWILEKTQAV
T1 sequence (P03951 19-387 partner limits assumed): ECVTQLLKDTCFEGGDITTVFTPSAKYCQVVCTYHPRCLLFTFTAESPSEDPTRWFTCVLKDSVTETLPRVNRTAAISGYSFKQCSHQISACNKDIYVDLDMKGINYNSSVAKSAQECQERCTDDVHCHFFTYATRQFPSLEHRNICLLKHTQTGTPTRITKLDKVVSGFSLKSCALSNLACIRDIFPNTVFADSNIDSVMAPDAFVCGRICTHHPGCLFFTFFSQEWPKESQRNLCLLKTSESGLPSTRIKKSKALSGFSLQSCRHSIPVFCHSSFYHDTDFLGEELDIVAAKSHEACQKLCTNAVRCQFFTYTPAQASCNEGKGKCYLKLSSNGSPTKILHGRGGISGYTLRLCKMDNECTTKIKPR
Sequence of human plasma kallikrein (P03952 391-638 limits assumed): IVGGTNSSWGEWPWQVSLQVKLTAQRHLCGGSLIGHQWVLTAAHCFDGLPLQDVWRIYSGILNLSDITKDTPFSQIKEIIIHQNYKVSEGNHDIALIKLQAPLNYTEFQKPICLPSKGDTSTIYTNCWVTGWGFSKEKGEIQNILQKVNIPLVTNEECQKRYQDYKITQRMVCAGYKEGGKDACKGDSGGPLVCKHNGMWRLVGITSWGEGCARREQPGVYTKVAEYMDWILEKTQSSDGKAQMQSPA
Sequence of human plasma kallikrein (P03952 20-390 partner limits assumed): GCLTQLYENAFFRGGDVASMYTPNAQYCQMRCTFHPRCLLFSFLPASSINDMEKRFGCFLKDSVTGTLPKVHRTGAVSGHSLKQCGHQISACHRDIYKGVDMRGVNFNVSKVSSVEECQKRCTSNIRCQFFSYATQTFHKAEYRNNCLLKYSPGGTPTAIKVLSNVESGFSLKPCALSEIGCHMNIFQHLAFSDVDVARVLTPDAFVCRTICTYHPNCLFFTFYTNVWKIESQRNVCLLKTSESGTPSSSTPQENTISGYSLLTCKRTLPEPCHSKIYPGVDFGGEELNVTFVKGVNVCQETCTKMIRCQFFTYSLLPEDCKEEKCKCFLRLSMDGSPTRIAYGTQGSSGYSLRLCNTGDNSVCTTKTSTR

What is called IC50 is the concentration that gives 50% inhibition. In the case of `O=C(O)c1ccc(-c2cnn([C@H](CC3CC3)c3ccc(-c4cc(Cl)ccc4-n4cnnn4)c[n+]3[O-])c2)cc1` [Example P6], the half-inhibitory concentration (IC50) at Factor XIa [1] is 2.1 nM; at human plasma kallikrein (setting [3]), 65.8 nM; at human plasma kallikrein (setting [4]), 85.2 nM.

Consider `O=C(O)c1ccc(-c2cnn(C(CC3CC3)c3ccc(-c4cc(Cl)ccc4-n4cnnn4)c[n+]3[O-])c2)cc1` (stereo not drawn) [Example P1], for which the results for the 50% inhibitory concentration (IC50) on Factor XIa [1], at human plasma kallikrein (setting [3]) and at human plasma kallikrein (setting [4]) were 2.6 nM, 124 nM and 157 nM, respectively.

By Km is commonly meant the concentration of substrate that gives half-maximal velocity. Usually kcat stands for the maximal rate divided by the concentration of active sites. Turning to “5Fam-KLTRAETV-K5Tamra (5FAM-KLTRAETV-{Lys(5-TAMRA)}; SMILES CC(C)C[C@H](NC(=O)[C@H](CCCCN)NC(=O)c1ccc2c(c1)C(=O)OC21c2ccc(O)cc2Oc2cc(O)ccc21)C(=O)N[C@H](C(=O)N[C@@H](CCCNC(=N)N)C(=O)N[C@@H](C)C(=O)N[C@@H](CCC(=O)O)C(=O)N[C@H](C(=O)N[C@H](C(=O)N[C@@H](CCCCNC(=O)c1ccc(-c2c3ccc(N(C)C)cc3[o+]c3cc(N(C)C)ccc23)c(C(=O)[O-])c1)C(=O)O)C(C)C)[C@@H](C)O)[C@@H](C)O) ["The peptide substrate ; (purchased from New England Peptide)", "designed with a fluorophore-quencher pair", based on the Arg146 cleavage site of FXI]”, in the test with Factor XIa [2] (peptide substrate of FXIa), the Km turned out to be 12.4 µM and the kcat is 0.86 s⁻¹. In addition, the Ki with Factor XIa [2] (substrate inhibition constant) stood at 61600 nM.

In the case of `O=C(O)c1cccc(-c2cnn(C(CC3CC3)c3c(F)cc(-c4cc(Cl)ccc4-n4cnnn4)c[n+]3[O-])c2)c1` (stereo not drawn) [Example P11], the IC50 on Factor XIa [1] came to 6.9 nM; at human plasma kallikrein (setting [3]) it was 81.4 nM.

For `O=C(O)c1ccc(-c2cnn(C(Cc3ccc(F)cc3)c3ccc(-c4cc(Cl)ccc4OCC(F)(F)F)c[n+]3[O-])c2)cc1` (stereo not drawn) [Example Q2], the values for the half-inhibitory concentration (IC50) on Factor XIa [1] and on human plasma kallikrein (setting [3]) were 41 nM and 674 nM, respectively.

Consider `CC(N)c1ccc(-c2cnn(C(Cc3ccccc3)c3ccc(-c4cc(Cl)ccc4-n4cnnn4)c[n+]3[O-])c2)cc1` (stereo not drawn) [Example P47], for which the half-maximal inhibitory concentration (IC50) on Factor XIa [1] is 22.2 nM; at human plasma kallikrein (setting [3]) it was 405 nM.

Turning to `CC(C)(C)OCCC(c1ccc(-c2cc(Cl)ccc2-n2cnnn2)c[n+]1[O-])n1cc(-c2ccc(C(=O)O)cc2)cn1` (stereo not drawn) [Example P8], the concentration for half-maximal inhibition (IC50) turned out to be 2.7 nM on Factor XIa [1] and 329 nM on human plasma kallikrein (setting [3]).

With `O=C1OCc2cc(-c3cnn(C(CC4CC4)c4ccc(-c5cc(Cl)ccc5-n5cnnn5)c[n+]4[O-])c3)ccc21` (stereo not drawn) [Example P16], the IC50 stood at 56.1 nM on Factor XIa [1] and 401 nM at human plasma kallikrein (setting [3]).

`Nc1ccc(-c2cnn(C(CC3CC3)c3ccc(-c4c(-n5cnnn5)ccc(Cl)c4F)c[n+]3[O-])c2)cc1` (stereo not drawn) [Example P21]: the IC50 on Factor XIa [1] is 10.1 nM; on human plasma kallikrein (setting [3]), 166 nM.

For `O=C(O)c1ccc(-c2cnn(C(c3cn(-c4ccccc4)nn3)c3ccc(-c4c(-n5cnnn5)ccc(Cl)c4F)c[n+]3[O-])c2)cc1` (stereo not drawn) [Example P35], the IC50 was determined as 169 nM at Factor XIa [1] and 800 nM at human plasma kallikrein (setting [3]).

For `COC(=O)Nc1ccc(-c2cnn(C(Cc3ccccc3)c3ccc(-c4cc(Cl)ccc4-n4cnnn4)c[n+]3[O-])c2)cc1` (stereo not drawn) [Example P39], the concentration for half-maximal inhibition (IC50) on Factor XIa [1] worked out at 3.8 nM; at human plasma kallikrein (setting [3]) it was 25.8 nM.

Take `COCCC(c1ccc(-c2c(-n3cnnn3)ccc(Cl)c2F)c[n+]1[O-])n1cc(-c2ccc(NC(=O)OC)cc2)cn1` (racemic) [Example P38]: the IC50 came to 3.2 nM on Factor XIa [1] and 56 nM on human plasma kallikrein (setting [3]).

The values above are taken from patent US11814364B2, “Pyridine N-oxide derivatives useful as factor XIa inhibitors” (Janssen Pharmaceutica NV, priority 2021, dated 2023).
